Assay results published in patent US20050043331A1, “Substituted 3-(2,5-disubstituted)pyridyl-4-aryl pyrroles for treating inflammatory diseases” (priority 2002, published 2005).
Read-outs that look alike come from different tables or passages of the source.

Legend:
TNF-α [1] = assay: In-vitro whole cell assay for TNF-α inhibition (LPS-stimulated PBMC, ELISA); format: cell-based; details: TNF-α by ELISA
How it was run: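 Human PBMC from heparinized venous blood (Ficoll-Hypaque), 1.67×10^6/mL in low-endotoxin RPMI/1% FCS, preincubated with compound 1 h at 37° C, then stimulated with LPS (200 ng/mL stock) overnight at 37° C. Duplicate wells. Supernatant TNF-α quantified by ELISA.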

P38 [2] = biological target: T1, P38 (Homo sapiens, UniProt Q16539); assay: P38 cell, 1 μM LJ; format: cell-based; design: unit not given here
P38 [3] = biological target: T1, P38; assay: p38 inhibition in-vitro enzyme assay; format: biochemical; details: recombinant 6×His-p38
Experimental: Purified recombinant 6×His-p38 and GST-ATF2 (both expressed in Baculovirus) were served as enzyme and substrate in our p38 inhibition assay. The enzyme reaction was performed in the anti-GST antibody pre-coated 96-well ELISA plate.
A 96-well ELISA plate was coated with 100 μl/well of anti-GST antibody (from Amersham) at a concentration of […] and incubated overnight at 4° C. The ELISA plate was blocked with 100 μl/well of 1% BSA at 25° C. for at least 2 hours, then the plate was washed with 300 μl PBST. The enzyme reaction was started by adding 10 μl of p38 recombinant protein (0.05 nM in final concentration), 10 μl of compound in desired concentration, 10 μl of substrates (670 μM ATP, 200 nM GST-ATF2 in final concentration) and 70 μl of reaction buffer (50 mM HEPES, pH 7.4, 100 mM NaCl, 10 mM MgCl2) and the mixture was incubated at 37° C. for 30 min. Washing the reaction plate with 3×300 μl/well of PBST stopped the enzyme reaction. Detection of the phosphorylated ATF2 substrate was done by the addition of 100 μl of anti-Pi-ATF2 antibody (from Cell Signaling) at a 1:200 dilution. The mixture was incubated at 25° C. for 30 min. A solution of 100 μl of HRP-conjugated goat anti-rabbit antibody (from Pierce) at a 1:250 dilution was added and the mixture and incubated at 25° C. for 30 min. The plate was washed with 6×300 μI PBST and 100 μl of OPD substrate (from Sigma) was then added. The mixture was incubated at 25° C. for 10 min. before adding 100 μl of 3 N H2SO4. The plate was read at 490 nm.
The % inhibition of each test compound was calculated by the following formula: % inhibition=[1−(sample−BKG)/(CTRL−BKG)]×100. The IC50 of each test compound was determined by a triplicate-8 point dose titration curve by Prism GraphPad program. […]

TNF-α [4] = assay: In vivo rodent assay for inhibition of LPS-induced TNF-α production; design: species or system Mice (BALB/cJ females); details: Mus musculus, po, 10 mg/kg oral
How it was run: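 Female BALB/cJ mice or male Lewis rats, fasted 30 min, received compound orally (mg/kg) at various times before intraperitoneal LPS at 1 mg/kg. Blood was collected by cardiac puncture 1 h after LPS, and serum TNF-α was quantified by species-specific ELISA.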

[5] = 0.5 h, 0.5 h, read-out: Mouse 10 mg/kg % inhib 0.5 h
[6] = 2 h, 2 h, read-out: Mouse 10 mg/kg % inhib 2 h

T1 sequence (Q16539 whole entry): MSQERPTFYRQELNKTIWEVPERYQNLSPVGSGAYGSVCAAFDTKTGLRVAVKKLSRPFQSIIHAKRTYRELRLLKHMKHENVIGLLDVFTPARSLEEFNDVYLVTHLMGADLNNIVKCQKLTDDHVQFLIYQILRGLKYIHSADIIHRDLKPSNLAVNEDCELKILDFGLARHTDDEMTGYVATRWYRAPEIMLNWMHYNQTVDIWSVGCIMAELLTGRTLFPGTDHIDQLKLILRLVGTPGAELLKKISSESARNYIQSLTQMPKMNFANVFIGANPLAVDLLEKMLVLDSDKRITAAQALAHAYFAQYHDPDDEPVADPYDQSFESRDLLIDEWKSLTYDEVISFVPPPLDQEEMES

SMILES | IC50 (TNF-α [1]) | P38 cell 1 μM LJ (P38 [2]) | IC50 (P38 [3]) | inhibition in vivo at 10 mg/kg (TNF-α [4]; [5]) | inhibition in vivo at 10 mg/kg (TNF-α [4]; [6])
COC(=O)c1c(-c2ccc(F)cc2)c(-c2ccncc2)c(NCCN2CCOCC2)n1C [Cpd 5] | 50 nM | 2 | > 10000 nM | 44% | –
COC(=O)c1c(-c2ccc(F)cc2)c(-c2ccncc2)c(N)n1C [Cpd 9, 5-Amino-3-(4-fluorophenyl)-1-methyl-4-(4-pyridinyl)-1H-pyrrole-2-carboxylic acid methyl ester] | 51 nM | 12 | – | 53.9% | –
COC(=O)c1c(-c2ccc(F)cc2)c(-c2ccncc2)c(N2CCN(C)CC2)n1C [Cpd 10, 3-(4-Fluorophenyl)-1-methyl-5-(4-methyl-1-piperazinyl)-4-(4-pyridinyl)-1H-pyrrole-2-carboxylic acid methyl ester] | 95 nM | 1 | – | 89% | –
COC(=O)c1c(-c2ccc(F)cc2)c(-c2ccncc2)c(N(C)CCN2CCOCC2)n1C [Cpd 11, 3-(4-Fluorophenyl)-1-methyl-5-[methyl[2-(4-morpholinyl)ethyl]amino]-4-(4-pyridinyl)-1H-pyrrole-2-carboxylic acid methyl ester] | 38 nM | – | > 10000 nM | 66% | –
Fc1ccc(-c2cn3c(c2-c2ccncc2)CN(Cc2ccccc2)CC3)cc1 [Cpd 29, 7-(4-Fluorophenyl)-1,2,3,4-tetrahydro-2-(phenylmethyl)-8-(4-pyridinyl)-pyrrolo[1,2-a]pyrazine] | 11 nM | – | 1660 nM | -6% | –
O=C1c2c(-c3ccncc3)c(-c3ccc(F)cc3)cn2C(=O)N1Cc1ccccc1 [Cpd 50] | 26 nM | – | > 10000 nM | 51% | –
O=C(NCc1ccccc1)c1[nH]cc(-c2ccc(F)cc2)c1-c1ccncc1 [Cpd 51] | 14 nM | – | > 10000 nM | -60% | –
CCCc1[nH]cc(-c2ccc(F)cc2)c1-c1ccnc(N[C@@H](C)c2ccccc2)n1 [Cpd 53] | 10 nM | – | 1440 nM | -19% | –
CCOC(=O)c1[nH]cc(-c2ccc(F)cc2)c1-c1ccncc1 [Cpd 54] | 145 nM | – | > 10000 nM | – | –
Fc1ccc(-c2c[nH]c(CN3CCNCC3)c2-c2ccncc2)cc1 [Cpd 56] | 63 nM | – | 856 nM | -41% | –
OCc1c(-c2ccc(F)cc2)c(-c2ccncc2)cn1CCN1CCOCC1 [Cpd 59] | 277 nM | 4 | 16 nM | -50% | –
CCCc1[nH]cc(-c2ccc(F)cc2)c1-c1ccnc(N[C@@H](C)COC)n1 [Cpd 61] | 86 nM | 91 | 5 nM | -35% | –
CCOC(=O)c1[nH]cc(-c2ccncc2)c1-c1cc(F)cc(F)c1 [Cpd 62] | 114 nM | 0 | 3470 nM | -14% | –
OCCNCc1[nH]cc(-c2ccc(F)cc2)c1-c1ccncc1 [Cpd 63] | 148 nM | 8 | > 2000 nM | – | –
Nc1[nH]cc(-c2ccc(F)cc2)c1-c1ccncc1 [Cpd 66] | 905 nM | 6 | 905 nM | – | –
C[C@H](Nc1nccc(-c2c[nH]cc2-c2ccc(F)cc2)n1)c1ccccc1 [Cpd 67] | 3 nM | 90 | 55 nM | – | –
Fc1ccc(-c2c[nH]c(CN3CCc4ccccc4C3)c2-c2ccncc2)cc1 [Cpd 72] | 40 nM | 32 | – | 63% | –
CN(Cc1ccccc1)Cc1[nH]cc(-c2ccc(F)cc2)c1-c1ccncc1 [Cpd 73] | 91 nM | 78 | – | 37% | –
CNC(=O)c1c(-c2ccc(F)cc2)c(-c2ccncc2)cn1C [Cpd 76] | 1480 nM | 18 | – | 67% | 78%
CCOC(=O)c1c(-c2ccc(C)cc2)c(-c2ccncc2)c(Br)n1C [Cpd 79] | 736 nM | 9 | – | -76% | –

SMILES | IC50 (TNF-α [1]) | P38 cell 1 μM LJ (P38 [2]) | IC50 (P38 [3]) | inhibition in vivo at 10 mg/kg (TNF-α [4]; [5]) | inhibition in vivo at 10 mg/kg (TNF-α [4]; [6])
COC(=O)c1c(-c2ccc(F)cc2)c(-c2ccncc2)c(N2CCCC2)n1C [Cpd 80] | 17 nM | 32 | – | -38% | –
COC(=O)c1c(-c2ccc(F)cc2)c(-c2ccncc2)c(N2CCOCC2)n1C [Cpd 81] | 47 nM | 12 | – | -41% | –
Cn1c(Br)c(-c2ccncc2)c(-c2ccc(F)cc2)c1C(=O)OC(C)(C)C [Cpd 82] | 1890 nM | 8 | – | -7% | –
CNC(=O)c1c(-c2ccc(F)cc2)c(-c2ccncc2)c(Br)n1C [Cpd 84] | 543 nM | 11 | – | 53% | –
CCn1cc(-c2ccncc2)c(-c2ccc(F)cc2)c1C(=O)OC [Cpd 85] | 108 nM | 4 | – | 53% | –
CCOC(=O)c1c(-c2ccc(F)cc2)c(-c2ccncc2)cn1C [Cpd 86] | 125 nM | −2 | – | – | –
CCOC(=O)c1c(-c2ccc(F)cc2)c(-c2ccncc2)c(Br)n1C [Cpd 87] | 86 nM | 4 | – | – | –
CCCNC(=O)c1c(-c2ccc(F)cc2)c(-c2ccncc2)c(N2CCNCC2)n1C [Cpd 88] | 10000 nM | 7 | – | – | –
CC(=O)c1c(-c2ccc(F)cc2)c(-c2ccncc2)c(N2CCNCC2)n1C [Cpd 91] | 40 nM | 29 | – | 39% | –
CC(=O)c1c(-c2ccc(F)cc2)c(-c2ccncc2)c(N2CCN(C(C)=O)CC2)n1C [Cpd 92] | 43 nM | 6 | – | 61% | 28%
Cn1c(C(=O)OC(C)(C)C)c(-c2ccc(F)cc2)c(-c2ccncc2)c1N1CCNCC1 [Cpd 94] | 420 nM | 10 | – | 25% | –
CN(C)C(=O)c1c(-c2ccc(F)cc2)c(-c2ccncc2)cn1C [Cpd 95] | 1380 nM | 21 | – | 33% | –
CN(C)C(=O)c1c(-c2ccc(F)cc2)c(-c2ccncc2)c(Br)n1C [Cpd 97] | 301 nM | 1 | – | -41% | –
COC(=O)c1c(-c2ccc(F)cc2)c(-c2ccncc2)c(N=C(c2ccccc2)c2ccccc2)n1C [Cpd 98] | 52 nM | −2 | – | -49% | –
CN(C)C(=O)c1c(-c2ccc(F)cc2)c(-c2ccncc2)c(N2CCNCC2)n1C [Cpd 101] | 120 nM | 13 | > 10000 nM | – | –
Cn1c(C(=O)C2CC2)c(-c2ccc(F)cc2)c(-c2ccncc2)c1N1CCN(C(=O)C2CC2)CC1 [Cpd 107] | 36 nM | 11 | – | – | –
COC(=O)C(=O)c1c(-c2ccc(F)cc2)c(-c2ccncc2)c(N2CCNCC2)n1C [Cpd 108] | 28 nM | 15 | – | 52% | –
CCN1CCCC1CNc1c(-c2ccncc2)c(-c2ccc(F)cc2)c(C(=O)OC)n1C (centres unmarked) [Cpd 109] | 7750 nM | – | 6180 nM | – | –
CCCc1c(-c2ccnc(N[C@@H](C)COC)n2)c(-c2ccc(F)cc2)cn1C(=O)OC(C)(C)C [Cpdd 58] | 50 nM | – | 1350 nM | – | –
